In publication PMC8887546, “Design and Synthesis of Brain Penetrant Glycopeptide Analogues of PACAP With Neuroprotective Potential for Traumatic Brain Injury and Parkinsonism” (Frontiers in drug discovery, 2022):

Tests used:
human VPAC1 receptor = target: T1, human VPAC1 receptor (Homo sapiens, UniProt P32241); test: cAMP stimulation in CHO cells expressing VPAC1; assay type: cell-based
T1 construct: expressed in transfected cells; host or cells: CHO cells (G418 selection)
T1 sequence (P32241 31-457): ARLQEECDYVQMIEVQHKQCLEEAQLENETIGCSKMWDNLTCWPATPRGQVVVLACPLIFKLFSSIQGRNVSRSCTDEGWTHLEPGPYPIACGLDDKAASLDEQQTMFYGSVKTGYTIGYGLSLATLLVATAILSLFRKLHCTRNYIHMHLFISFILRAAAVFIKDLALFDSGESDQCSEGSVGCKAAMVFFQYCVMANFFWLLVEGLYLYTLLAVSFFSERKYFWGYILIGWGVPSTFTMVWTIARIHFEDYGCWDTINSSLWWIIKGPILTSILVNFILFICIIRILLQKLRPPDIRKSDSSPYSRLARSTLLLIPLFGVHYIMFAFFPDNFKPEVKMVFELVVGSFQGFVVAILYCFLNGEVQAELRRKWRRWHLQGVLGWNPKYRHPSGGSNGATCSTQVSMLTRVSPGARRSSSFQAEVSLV

[1] = tested on: C57BL/6 mice, diffuse TBI; test: Plasma cytokine measurement after TBI; assay type: in vivo, mouse; settings: 10 mg/kg i.p. 30 min prior to TBI
Experimental: 30 min prior to TBI or sham injury, mice were randomly assigned to a therapeutic group and received an intraperitoneal injection of 2LS80Mel (10 mg/kg) or sterile saline (0.25 ml). Groups were as follows: TBI-2LS80Mel n = 17; TBI-vehicle n = 17; sham n = 22 (vehicle n = 11, 2LS80Mel n = 11).
For injury induction 24 h post-surgery, mice were re-anesthetized with 5% isoflurane delivered for 3 min. The cap was removed from the injury-hub assembly and the dura was visually inspected through the hub to ensure it was intact with no debris. The hub was then filled with normal saline and attached to an extension tube connected to the male end of the fluid percussion device (Custom Design and Fabrication, Virginia Commonwealth University, Richmond, VA). An injury of moderate severity for our injury model (1.4 atm) was administered by releasing the pendulum onto the fluid-filled cylinder following the return of a toe-pinch response. Sham mice underwent the same procedure except the pendulum was not released. Injured mice were monitored for presence of a forearm fencing response and righting reflex times were recorded as indicators of injury severity ([Hosseini and Lifshitz, 2009]). The righting reflex time is the total time from the initial impact until the mouse spontaneously rights itself from a supine position. The fencing response is a tonic posturing characterized by extension and flexion of opposite arms that has been validated as an overt indicator of injury severity ([Hosseini and Lifshitz, 2009]). The injury hub was removed, and the brain was inspected for uniform herniation and integrity of the dura. The incision was cleaned with saline and closed using sutures. Moderately brain-injured mice had righting reflex recovery times greater than 4 min and a positive fencing response. Righting reflex times for TBI-2LS80Mel mice were 477.13 ± 83.13 s and the righting reflex times for TBI-vehicle mice were 417.05 ± 107.47 s. […] After spontaneously righting, mice were placed in a heated recovery cage and monitored until they were ambulatory (approximately 5–15 min) before being returned to their piezoelectric sleep cage (see below). […]
Approximately 75 μl of blood were centrifuged to collect approximately 40 μl of plasma from each animal at 2 and 14 days post-injury ([Saber et al., 2020]). Multiplex cytokine assays (MILLIPLEX MAP Mouse Cytokine/Chemokine Magnetic Bead Panel, Millipore Sigma, Burlington, MA) quantified interleukin (IL)-1β, IL-6, and tumor necrosis factor (TNF)-α in peripheral blood. […] Fluorescent intensity was measured on a Bio-Plex® 200 system (Bio-Rad Laboratories, Hercules, CA) and corresponded to the concentration of each analyte in plasma samples. Duplicate values were averaged and analyzed between groups. […]

Row | Structure (SMILES) | Emax (human VPAC1 receptor; CHO, read-out: VPAC1 Emax) | Receptor selectivity ratio VPAC1/PAC1 (human VPAC1 receptor; ratio of cAMP EC50 values) | EC50 (human VPAC1 receptor; read-out: VPAC1 EC50) | Plasma IL-1β ([1]; 2 DPI) | Plasma IL-6 ([1]; 2 DPI) | Plasma TNF-α ([1]; 2 DPI) | Peripheral cytokines (IL-1β, IL-6, TNF-α) ([1]; 14 DPI, data not shown)
1 | [2H]C([2H])([2H])C([2H])(C([2H])([2H])[2H])[C@]([2H])(NC(=O)[C@H](C)NC(=O)[C@H](C)NC(=O)[C@H](CC(C)C)NC(=O)[C@H](Cc1ccc(O)cc1)NC(=O)[C@H](CCCCN)NC(=O)[C@H](CCCCN)NC(=O)[C@@]([2H])(NC(=O)[C@H](C)NC(=O)[C@H](CC(C)C)NC(=O)[C@H](CCC(N)=O)NC(=O)[C@H](CCCCN)NC(=O)[C@H](CCCNC(=N)N)NC(=O)[C@H](Cc1ccc(O)cc1)NC(=O)[C@H](CCCNC(=N)N)NC(=O)[C@H](CO)NC(=O)[C@H](Cc1ccc(O)cc1)NC(=O)[C@H](CO)NC(=O)[C@H](CC(=O)O)NC(=O)[C@@H](NC(=O)[C@H](Cc1ccccc1)NC(=O)[C@@H](NC(=O)CNC(=O)[C@H](CC(=O)O)NC(=O)[C@H](CO)NC(=O)[C@@H](N)Cc1c[nH]cn1)[C@@H](C)CC)[C@@H](C)O)C([2H])(C([2H])([2H])[2H])C([2H])([2H])[2H])C(=O)N[C@@H](CC(C)C)C(=O)N[C@@H](CO[C@@H]1O[C@H](CO)[C@@H](O[C@@H]2O[C@H](CO)[C@H](O)[C@H](O)[C@H]2O)[C@H](O)[C@H]1O)C(N)=O [Compound 2LS98Lac] | 101% | 0.63 | 450 pM | – | – | – | –
2 | CC[C@H](C)[C@H](NC(=O)CNC(=O)[C@H](CC(=O)O)NC(=O)[C@H](CO)NC(=O)[C@@H](N)Cc1c[nH]cn1)C(=O)N[C@@H](Cc1ccccc1)C(=O)N[C@H](C(=O)N[C@@H](CC(=O)O)C(=O)N[C@@H](CO)C(=O)N[C@@H](Cc1ccc(O)cc1)C(=O)N[C@@H](CO)C(=O)N[C@@H](CCCNC(=N)N)C(=O)N[C@@H](Cc1ccc(O)cc1)C(=O)N[C@@H](CCCNC(=N)N)C(=O)N[C@@H](CCCCN)C(=O)N[C@@H](CCC(N)=O)C(=O)N[C@@H](CC(C)C)C(=O)N[C@@H](C)C(=O)N[C@H](C(=O)N[C@@H](CCCCN)C(=O)N[C@@H](CCCCN)C(=O)N[C@@H](Cc1ccc(O)cc1)C(=O)N[C@@H](CC(C)C)C(=O)N[C@@H](C)C(=O)N[C@@H](C)C(=O)N[C@H](C(=O)N[C@@H](CC(C)C)C(=O)N[C@@H](CO[C@@H]1O[C@H](CO[C@H]2O[C@H](CO)[C@H](O)[C@H](O)[C@H]2O)[C@@H](O)[C@H](O)[C@H]1O)C(N)=O)C(C)C)C(C)C)[C@@H](C)O [Compound 2LS80Mel] | – | – | – | no differences | no differences | no differences | no differences
